# Results: US20150038545A1, “HYDROXYPHENYL PYRROLE COMPOUNDS CONTAINING AN HYDROXAMIC ACID AS HDAC INHIBITORS AND MEDICINAL APPLICATIONS THEREOF” (UNIVERSIDAD DEL PAÍS VASCO, priority 2011, published 2015)
# Assays:
# SW620 = test: Cancer cell growth inhibition (CellTiter-Glo), SW620; type: cell-based; details: Homo sapiens, SW-620; Colorectal Cancer, SW620, 72 h treatment
# Method: (§1) Cell culture-based assays were used to evaluate the ability of compounds of the invention to inhibit cancer cell growth.
# (§2) Cells were obtained from the American Type Culture Collection (ATCC). Cells were cultured at 37° C. with 5% CO2 in the appropriate growth medium (see table below), and harvested respectively during the logarithmic growth period and counted with hemocytometer. The cell viability was examined by trypan blue exclusion. Cell concentrations were adjusted to 5.56×10^4 cells/ml with respective medium.
# (§3) Stock solutions of test compounds and positive drugs Doxorubicin (Zhejiang, Haizheng, China), Cisplatin (Nanjing Zhiyao, China) and Mitomycin (Zhejiang, Haizheng, China) were prepared in dimethyl sulphoxide (DMSO) or PBS at 20 mM.
# (§4) In order to determine the IC50 for each compound, experiments were carried out in 96-well plates and the cell lines seeded at a density of 5,000 cells/well. […] All treatments were performed in triplicate. 10 μl of drug solution was added to each well and incubated for 72 hours. At the end of the incubation, 100 μl of the CellTiter-Glo Reagent were added to each well and the contents were mixed for 2 munites on an orbital shaker to induce cell lysis. The plate was incubated at room temperature for 10 minutes to stabilize luminiscent signal, and luminiscent was recorded. […] In order to calculate IC50 values, dose-responsive curves were fitted using nonlinear regression model with a sigmoidal dose response.
# Colo205 = test: Cancer cell growth inhibition (CellTiter-Glo), Colo205; type: cell-based; details: Homo sapiens, COLO 205; Colorectal Cancer, Colo205, 72 h treatment
# Method: as §1, §2, §3, §4
# BT474 = test: Cancer cell growth inhibition (CellTiter-Glo), BT474; type: cell-based; details: Homo sapiens, BT-474; Breast Cancer, BT474, 72 h treatment
# Method: as §1, §2, §3, §4
# HCT-116 = test: Cancer cell growth inhibition (CellTiter-Glo), HCT-116; type: cell-based; details: Homo sapiens; Colorectal Cancer, HCT-116, 72 h treatment
# Method: as §1, §2, §3, §4
# MIAPaCa-2 = test: Cancer cell growth inhibition (CellTiter-Glo), MIAPaCa-2; type: cell-based; details: Homo sapiens, MIA PaCa-2; Pancreatic Cancer, MIAPaCa-2, 72 h treatment
# Method: as §1, §2, §3, §4
# MDA-MB-231 = test: Cancer cell growth inhibition (CellTiter-Glo), MDA-MB-231; type: cell-based; details: Homo sapiens; Breast Cancer, MDA-MB-231, 72 h treatment
# Method: as §1, §2, §3, §4
# SK-HEP-1 = test: Cancer cell growth inhibition (CellTiter-Glo), SK-HEP-1; type: cell-based; details: Homo sapiens, SK-HEP1; Liver Cancer, SK-HEP-1, 72 h treatment
# Method: as §1, §2, §3, §4
# HepG2 = test: Cancer cell growth inhibition (CellTiter-Glo), HepG2; type: cell-based; details: Homo sapiens; Liver Cancer, HepG2, 72 h treatment
# Method: as §1, §2, §3, §4
# 143b = test: Cancer cell growth inhibition (CellTiter-Glo), 143b; type: cell-based; details: Homo sapiens, Osteosarcoma, 72 h treatment
# Method: as §1, §2, §3, §4
# MCG803 = test: Cancer cell growth inhibition (CellTiter-Glo), MCG803; type: cell-based, Human; details: Gastric Cancer, MCG803, 72 h treatment
# Method: as §1, §2, §3, §4
# Hep3B = test: Cancer cell growth inhibition (CellTiter-Glo), Hep3B; type: cell-based, Human; details: Liver Cancer, 72 h treatment
# Method: as §1, §2, §3, §4
# SK-OV-3 = test: Cancer cell growth inhibition (CellTiter-Glo), SK-OV-3; type: cell-based, Human; details: Ovarian Cancer, SK-OV-3, 72 h treatment
# Method: as §1, §2, §3, §4
# SK-MEL-5 = test: Cancer cell growth inhibition (CellTiter-Glo), SK-MEL-5; type: cell-based, Human; details: Melanoma, SK-MEL-5, 72 h treatment
# Method: as §1, §2, §3, §4
# U-87MG = test: Cancer cell growth inhibition (CellTiter-Glo), U-87MG; type: cell-based, Human; details: Glioblastoma, 72 h treatment
# Method: as §1, §2, §3, §4
# DU145 = test: Cancer cell growth inhibition (CellTiter-Glo), DU145; type: cell-based, Human; details: Prostate Cancer, DU145, 72 h treatment
# Method: as §1, §2, §3, §4
# SW480 = test: Cancer cell growth inhibition (CellTiter-Glo), SW480; type: cell-based, Human; details: Colorectal Cancer, SW480, 72 h treatment
# Method: as §1, §2, §3, §4
# RPMI-8226 = test: Cancer cell growth inhibition (CellTiter-Glo), RPMI-8226; type: cell-based, Human; details: Orthotopic Multiple Myeloma, RPMI-8226, 72 h treatment
# Method: as §1, §2, §3, §4
# OVCAR3 = test: Cancer cell growth inhibition (CellTiter-Glo), OVCAR3; type: cell-based, Human; details: Ovarian Cancer, OVCAR3, 72 h treatment
# Method: as §1, §2, §3, §4
# Calu-6 = test: Cancer cell growth inhibition (CellTiter-Glo), Calu-6; type: cell-based, Human; details: Lung Cancer, Calu-6, 72 h treatment
# Method: as §1, §2, §3, §4
# Bx-PC-3 = test: Cancer cell growth inhibition (CellTiter-Glo), Bx-PC-3; type: cell-based, Human; details: Pancreatic Cancer, Bx-PC-3, 72 h treatment
# Method: as §1, §2, §3, §4
# PANC-1 = test: Cancer cell growth inhibition (CellTiter-Glo), PANC-1; type: cell-based, Human; details: Pancreatic Cancer, PANC-1, 72 h treatment
# Method: as §1, §2, §3, §4
# A375 = test: Cancer cell growth inhibition (CellTiter-Glo), A375; type: cell-based, Human; details: Melanoma, A375, 72 h treatment
# Method: as §1, §2, §3, §4
# NCI-H460 = test: Cancer cell growth inhibition (CellTiter-Glo), NCI-H460; type: cell-based, Human; details: Lung Cancer, NCI-H460, 72 h treatment
# Method: as §1, §2, §3, §4
# MCF-7 = test: Cancer cell growth inhibition (CellTiter-Glo), MCF-7; type: cell-based, Human; details: Breast Cancer, MCF-7, 72 h treatment
# Method: as §1, §2, §3, §4
# NCI-N87 = test: Cancer cell growth inhibition (CellTiter-Glo), NCI-N87; type: cell-based, Human; details: Gastric Cancer, NCI-N87, 72 h treatment
# Method: as §1, §2, §3, §4
# 786-O = test: Cancer cell growth inhibition (CellTiter-Glo), 786-O; type: cell-based, Human; details: Kidney Cancer, 72 h treatment
# Method: as §1, §2, §3, §4
# PC-3 = test: Cancer cell growth inhibition (CellTiter-Glo), PC-3; type: cell-based, Human; details: Prostate Cancer, PC-3, 72 h treatment
# Method: as §1, §2, §3, §4
# KB = test: Cancer cell growth inhibition (CellTiter-Glo), KB; type: cell-based, Human; details: Oral Cancer, 72 h treatment
# Method: as §1, §2, §3, §4
# HT-29 = test: Cancer cell growth inhibition (CellTiter-Glo), HT-29; type: cell-based, Human; details: Colorectal Cancer, HT-29, 72 h treatment
# Method: as §1, §2, §3, §4
# LNCaP = test: Cancer cell growth inhibition (CellTiter-Glo), LNCaP; type: cell-based, Human; details: Prostate Cancer, 72 h treatment
# Method: as §1, §2, §3, §4
# SK-BR-3 = test: Cancer cell growth inhibition (CellTiter-Glo), SK-BR-3; type: cell-based, Human; details: Breast Cancer, SK-BR-3, 72 h treatment
# Method: as §1, §2, §3, §4
# CNE2 = test: Cancer cell growth inhibition (CellTiter-Glo), CNE2; type: cell-based, Human; details: Nasopharyngeal, CNE2, 72 h treatment
# Method: as §1, §2, §3, §4
# SK-MES-1 = test: Cancer cell growth inhibition (CellTiter-Glo), SK-MES-1; type: cell-based, Human; details: Lung Cancer, SK-MES-1, 72 h treatment
# Method: as §1, §2, §3, §4
# A549 = test: Cancer cell growth inhibition (CellTiter-Glo), A549; type: cell-based, Human; details: Lung Cancer, A549, 72 h treatment
# Method: as §1, §2, §3, §4
# LoVo = test: Cancer cell growth inhibition (CellTiter-Glo), LoVo; type: cell-based, Human; details: Colorectal Cancer, 72 h treatment
# Method: as §1, §2, §3, §4
# NCI-H1703 = test: Cancer cell growth inhibition (CellTiter-Glo), NCI-H1703; type: cell-based, Human; details: Lung Cancer, NCI-H1703, 72 h treatment
# Method: as §1, §2, §3, §4
# K562 = test: Cancer cell growth inhibition (CellTiter-Glo), K562; type: cell-based, Human; details: CML, K562, 72 h treatment
# Method: as §1, §2, §3, §4
# DLD-1 = test: Cancer cell growth inhibition (CellTiter-Glo), DLD-1; type: cell-based, Human; details: Colorectal Cancer, DLD-1, 72 h treatment
# Method: as §1, §2, §3, §4
# BGC-823 = test: Cancer cell growth inhibition (CellTiter-Glo), BGC-823; type: cell-based, Human; details: Gastric Cancer, BGC-823, 72 h treatment
# Method: as §1, §2, §3, §4
# HT-1080 = test: Cancer cell growth inhibition (CellTiter-Glo), HT-1080; type: cell-based; details: Homo sapiens; Fibrosarcoma, HT-1080, 72 h treatment
# Method: as §1, §2, §3, §4
smiles,measurement,setting,value
"CO[C@@]12[C@H](COC(N)=O)C3=C(C(=O)C(C)=C(N)C3=O)N1C[C@@H]1N[C@@H]12 [Mitomycin, reference compound]",IC50,SW620,1.22 µM
same,IC50,Colo205,2.67 µM
same,IC50,BT474,30.3 µM
same,IC50,HCT-116,0.82 µM
same,IC50,MIAPaCa-2,0.63 µM
same,IC50,MDA-MB-231,19.8 µM
same,IC50,SK-HEP-1,8.12 µM
same,IC50,HepG2,0.91 µM
same,IC50,143b,0.64 µM
"N.N.[Cl][Pt][Cl] [Cisplatin, reference compound]",IC50,MCG803,5.08 µM
same,IC50,Hep3B,3.96 µM
same,IC50,SK-OV-3,9.88 µM
same,IC50,SK-MEL-5,5.81 µM
same,IC50,U-87MG,4.76 µM
same,IC50,DU145,1.02 µM
same,IC50,SW480,46.6 µM
same,IC50,RPMI-8226,4.57 µM
same,IC50,OVCAR3,4.47 µM
same,IC50,Calu-6,2.45 µM
same,IC50,Bx-PC-3,4.73 µM
same,IC50,PANC-1,22 µM
same,IC50,A375,3.16 µM
same,IC50,NCI-H460,1.6 µM
same,IC50,MCF-7,22.2 µM
same,IC50,NCI-N87,4.21 µM
same,IC50,786-O,3.23 µM
same,IC50,PC-3,59.5 µM
same,IC50,KB,10.4 µM
same,IC50,HT-29,12.2 µM
same,IC50,LNCaP,6.51 µM
same,IC50,SK-BR-3,3.18 µM
same,IC50,CNE2,6.58 µM
same,IC50,SK-MES-1,9.49 µM
same,IC50,A549,8.22 µM
same,IC50,LoVo,10.4 µM
same,IC50,NCI-H1703,7.56 µM
same,IC50,K562,14.8 µM
same,IC50,DLD-1,11.3 µM
same,IC50,BGC-823,1.15 µM
"COc1cccc2c1C(=O)c1c(O)c3c(c(O)c1C2=O)C[C@@](O)(C(=O)CO)C[C@@H]3O[C@H]1C[C@H](N)[C@H](O)[C@H](C)O1 [Doxorubicin, reference compound]",IC50,HT-1080,0.27 µM
